Tests used:
Type in all cases: cell-based, human
[1] = tested on: patient-derived tumor organoids (PDTOs), cervical carcinoma; assay: Endoxifen screen in PDTOs: cervical carcinoma; set-up: key to Personalization Category: Personalization categories range from High, Good, Moderate, Low, to None; Personalization categories range from High, Good, Moderate, Low, to None; Personalization categories range from High, Good, Moderate, Low, to None; Personalization categories range from High, Good, Moderate, Low, to None; Personalization categories range from High, Good, Moderate, Low, to None; key to Sensitivity Category: Sensitivity categories range from High, Good, Moderate, Low, to None; Sensitivity categories range from High, Good, Moderate, Low, to None; Sensitivity categories range from High, Good, Moderate, Low, to None; Sensitivity categories range from High, Good, Moderate, Low, to None; Sensitivity categories range from High, Good, Moderate, Low, to None; AUC: unit not given beside the values
Experimental: (§1) This example describes screening endoxifen in patient-derived tumor organoids. Endoxifen was tested as a single agent on tumor organoids derived from patients diagnosed with various cancer types using a personalized cancer treatment screening assay (PARIS© Test, SEngine Precision Medicine). The screen utilized patient-derived tumor organoids (PDTOs) along with high-throughput drug screening and machine learning-guided data analysis to quantify the efficacy of endoxifen against samples derived from individual patients diagnosed with various cancer types. PDTOs are self-organizing, three-dimensional organoid structures that recapitulate structural, functional, and genomic aspects of in vivo organs. The PDTOs were grown in culture from patient tumor biopsy samples.
(§2) Fresh patient biopsy samples received following surgery were cleaned and purified. Immune cells (e.g., lymphocytes, blood cells), cancer-associated fibroblasts, and other non-tumor cells were removed to establish pure PDTOs for endoxifen testing. The tumor organoids were grown and expanded by supplying organ- and patient-specific growth factors and nutrients. The PDTOs were treated with increasing concentrations of endoxifen ranging from about 30 nM to about 10 μM, and the drug response was measured using a luminescence readout. A lower luminescence was indicative of a stronger drug response.
(§3) The results were analyzed using a “SEngine Precision Medicine” (SPM) scoring system to assess the sensitivity and personalization of each tumor organoid to endoxifen. The SPM score correlates with clinical outcomes, such that a higher SPM score for a specific PDTO-drug combination predicts a more favorable clinical outcome following treatment of the corresponding patient with the tested drug.
(§4) This example describes testing endoxifen efficacy against 17 distinct cancer types in patient-derived tumor organoids (PDTOs). Screening of PDTOs was performed as described in EXAMPLE 1. For each PDTO sample, the drug response was measured using a luminescent readout over a range of endoxifen concentrations. The drug response was evaluated based on the area under the fitted dose response curve (AUC) and the SPM scoring system. AUC values were normalized for each PDTO. Briefly, data points at each drug concentration were first normalized to a negative control, then a dose response drug curve was approximated using a four-parameter logistic model fitted to the normalized data points. The area under the curve was calculated from the normalized curve. Normalization allowed for comparison of AUC values between patient samples. The SPM scores were based on machine learning models that incorporate values for how well the drug kill patient cells (sensitivity metric), the relative drug responses of a patient to all other patients in a sample database (personalization metric), and knowledge of clinical outcomes for patients that had been evaluated with the personalized cancer screening assay (PARIS® Test, SEngine Precision Medicine).
(§5) The SPM scoring system evaluated whether a PDTO was unresponsive or responsive to endoxifen and the degree of drug response for PDTOs that were responsive to endoxifen. […] The sensitivity category was determined from the sensitivity metric and is a measure of overall cell death of a patient's cells in response to endoxifen at six concentrations. […]

[2] = tested on: patient-derived tumor organoids (PDTOs), esophageal adenocarcinoma; assay: Endoxifen screen in PDTOs: esophageal adenocarcinoma; set-up: key to Personalization Category: Personalization categories range from High, Good, Moderate, Low, to None; Personalization categories range from High, Good, Moderate, Low, to None; Personalization categories range from High, Good, Moderate, Low, to None; Personalization categories range from High, Good, Moderate, Low, to None; Personalization categories range from High, Good, Moderate, Low, to None; AUC: unit not given beside the values
Experimental: as §1, §2
The results were analyzed using a “SEngine Precision Medicine” (SPM) scoring system to assess the sensitivity and personalization of each tumor organoid to endoxifen. […]
as §4, with “Screening of PDTOs was performed as described in EXAMPLE 1.” left out, “AUC values were normalized for each PDTO. Briefly, data points at each drug concentration were first normalized to a negative control, then a dose response drug curve was approximated using a four-parameter logistic model fitted to the normalized data points.” left out, “Normalization allowed for comparison of AUC values between patient samples.” left out
as §5

[3] = tested on: patient-derived tumor organoids (PDTOs), thyroid cancer; assay: Endoxifen screen in PDTOs: thyroid cancer; set-up: key to Personalization Category: Personalization categories range from High, Good, Moderate, Low, to None; Personalization categories range from High, Good, Moderate, Low, to None; Personalization categories range from High, Good, Moderate, Low, to None; Personalization categories range from High, Good, Moderate, Low, to None; Personalization categories range from High, Good, Moderate, Low, to None; key to Sensitivity Category: Sensitivity categories range from High, Good, Moderate, Low, to None; Sensitivity categories range from High, Good, Moderate, Low, to None; Sensitivity categories range from High, Good, Moderate, Low, to None; Sensitivity categories range from High, Good, Moderate, Low, to None; Sensitivity categories range from High, Good, Moderate, Low, to None; AUC: unit not given beside the values
Experimental: as §1, §2, §3, §4, §5

## CC/C(=C(\c1ccc(O)cc1)c1ccc(OCCNC)cc1)c1ccccc1 [Endoxifen, 4-hydroxy-N-desmethyltamoxifen]
[1]; Homo sapiens, Patient 10, four-parameter logistic fit
  IC50: 3.48 µM
[1]; Patient 10
  Personalization Category: Good
  Sensitivity Category: Low
[1]; Patient 10, normalized area under fitted dose response curve
  AUC: 0.8002
[1]; Patient 10, score range 1-15
  SPM Score: 11
[2]; Homo sapiens, Patient 14, four-parameter logistic fit
  IC50: 3.97 µM
[2]; Patient 14
  Personalization Category: Good
[2]; Patient 14, normalized area under fitted dose response curve
  AUC: 0.7771
[2]; Patient 14, score range 1-15
  SPM Score: 11
[3]; Homo sapiens, patient 4, four-parameter logistic fit
  IC50: 7.1 µM
[3]; patient 4
  Personalization Category: None
  Sensitivity Category: None
[3]; patient 4, normalized area under fitted dose response curve
  AUC: 0.9109
[3]; patient 4, score range 1-15
  SPM Score: 1
